The source of these data is ChEMBL document CHEMBL1130847, “Synthesis and pharmacology of N-alkylated derivatives of the excitotoxin ibotenic acid” (Bioorg Med Chem Lett, 1998).

SMILES strings stand for the structures. pEC50: −log10 of the molar value.

For one assay, the species on record is Rattus norvegicus. Put plainly: Evaluated for effective concentration in, in vitro electrophysiological model in the rat cortical slice model. The class given is functional.
The target in assay [1] is Metabotropic glutamate receptor 1 (Rattus norvegicus, UniProt P23385). Briefly: Compound was evaluated for agonistic activity against mGluR1 alpha metabotropic receptor subtype in rat cortical slice model. The class given is functional.
Chain of Metabotropic glutamate receptor 1 (P23385 whole entry): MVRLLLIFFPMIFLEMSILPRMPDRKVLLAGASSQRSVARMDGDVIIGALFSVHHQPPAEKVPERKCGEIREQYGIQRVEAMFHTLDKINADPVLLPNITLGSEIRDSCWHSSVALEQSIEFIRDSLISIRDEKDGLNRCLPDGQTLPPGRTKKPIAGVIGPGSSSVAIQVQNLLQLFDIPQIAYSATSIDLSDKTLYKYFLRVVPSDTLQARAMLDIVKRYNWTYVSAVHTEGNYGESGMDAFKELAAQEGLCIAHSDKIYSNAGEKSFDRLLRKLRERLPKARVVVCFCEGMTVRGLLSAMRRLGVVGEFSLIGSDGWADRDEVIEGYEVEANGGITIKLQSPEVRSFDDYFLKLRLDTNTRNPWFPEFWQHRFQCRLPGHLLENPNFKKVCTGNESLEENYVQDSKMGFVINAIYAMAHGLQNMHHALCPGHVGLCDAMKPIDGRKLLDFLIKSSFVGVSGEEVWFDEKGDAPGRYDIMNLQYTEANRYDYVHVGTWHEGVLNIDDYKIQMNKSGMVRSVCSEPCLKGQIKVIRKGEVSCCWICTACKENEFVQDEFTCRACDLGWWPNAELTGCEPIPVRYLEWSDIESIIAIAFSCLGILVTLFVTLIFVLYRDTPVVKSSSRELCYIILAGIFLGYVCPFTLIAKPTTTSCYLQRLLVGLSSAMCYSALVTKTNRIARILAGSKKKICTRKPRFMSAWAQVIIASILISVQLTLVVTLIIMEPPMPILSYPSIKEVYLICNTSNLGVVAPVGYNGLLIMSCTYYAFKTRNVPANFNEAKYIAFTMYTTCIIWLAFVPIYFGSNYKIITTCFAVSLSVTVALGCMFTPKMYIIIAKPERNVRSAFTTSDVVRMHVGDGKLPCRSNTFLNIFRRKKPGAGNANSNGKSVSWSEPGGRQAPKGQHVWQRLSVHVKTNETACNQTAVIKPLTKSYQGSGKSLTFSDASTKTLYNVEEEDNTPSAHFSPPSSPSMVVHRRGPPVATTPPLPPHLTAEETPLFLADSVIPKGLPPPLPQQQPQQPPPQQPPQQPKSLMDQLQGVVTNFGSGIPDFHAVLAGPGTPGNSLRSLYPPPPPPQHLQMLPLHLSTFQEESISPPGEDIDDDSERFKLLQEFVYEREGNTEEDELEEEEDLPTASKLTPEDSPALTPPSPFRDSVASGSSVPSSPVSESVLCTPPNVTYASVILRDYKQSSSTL

Turning to `Cc1onc(O)c1C(N)C(=O)O` (stereo not given), the values for the pEC50 (in the assay filed under Rattus norvegicus; in assay [1]) were 4.92 and under 3.00, respectively.

In the case of `CCNC(C(=O)O)c1cc(O)no1` (stereo not given), the figures for the negative-log EC50 (pEC50) (in the assay listed under Rattus norvegicus; in assay [1]) were 3.49 and under 3.00, respectively.

With `NC(C(=O)O)c1cc(O)no1` (stereo not given), the results for the negative logarithm of the EC50 (pEC50) (in the assay listed under Rattus norvegicus; in assay [1]) were 5.02 and 4.37, respectively.

Consider `O=C(O)C(NCc1ccccc1)c1cc(O)no1` (stereo not given), for which the negative logarithm of the EC50 (pEC50) (in the assay listed under Rattus norvegicus; in assay [1]) was under 3.00 throughout.

Take `CNC(C(=O)O)c1cc(O)no1` (stereo not given): the values for the pEC50 (in the assay filed under Rattus norvegicus; in assay [1]) were 3.85 and under 3.00, respectively.
